This note sets out measurements from patent publication US8338423B2, “Compositions for the treatment of hyperphenylalaninemia” (Universidad de Zaragoza, priority 2007, dated 2012).

Holding throughout (type): binding
One test has as its target T1, R68S-PAH (Homo sapiens, UniProt P00439, R68S).
T1 construct: made in house; host or cells: E. coli
T1 sequence (P00439 1-452 R68S): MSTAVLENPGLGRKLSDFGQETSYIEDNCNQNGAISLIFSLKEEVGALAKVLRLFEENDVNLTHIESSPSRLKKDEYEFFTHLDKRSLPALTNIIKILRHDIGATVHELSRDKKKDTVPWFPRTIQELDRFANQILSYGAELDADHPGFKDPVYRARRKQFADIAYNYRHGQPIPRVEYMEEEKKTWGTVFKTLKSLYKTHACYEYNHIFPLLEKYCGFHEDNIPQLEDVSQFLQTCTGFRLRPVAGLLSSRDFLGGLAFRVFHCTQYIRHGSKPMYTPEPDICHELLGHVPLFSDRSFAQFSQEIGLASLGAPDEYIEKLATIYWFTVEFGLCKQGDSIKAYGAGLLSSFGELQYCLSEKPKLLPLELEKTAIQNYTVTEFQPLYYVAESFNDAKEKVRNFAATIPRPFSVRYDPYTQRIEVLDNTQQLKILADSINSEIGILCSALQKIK
In words: ANS-monitored thermal unfolding of R68S-PAH. The following applies: for ΔT0.5 PAHR68S / T0.5 PAHR68S: 100 μM compound; for ΔT0.5 PAHR68S: vs no ligand; for T0.5 PAHR68S: mean ± SD; for stabilization of R68S-PAH: 100 μM ligand. Here is the method: (§1) HTS for ligand-induced PAH stabilization was performed by monitoring the thermal denaturation of recombinant pure PAH protein in the presence of the extrinsic fluorescent probe 8-anilino 1-naphtalene sulfonic acid (ANS; Aldrich). HTS experiments were performed in a FluoDia T70 High Temperature Fluorescence Microplate Reader (Photon Technology International). Protein-ligand solutions (200 uL) were dispensed into 96-well microplates (ThermoFast®96 Skirted from Abgene) and overlayed with mineral oil. Protein solutions contained 0.1 mg/ml PAH (2 μM in PAH subunit) in 20 mM Hepes 200 mM NaCl pH 7.0 and 100 μM ANS. Ligands were added in DMSO, at 100 μM and 2.5% final concentration, respectively. Control experiments in the absence of DMSO and/or ligands were routinely performed in each microplate. Ligands (from MayBridge HitFinder™ Collection Database) were manually added to the microplates containing the protein solutions and incubated at 25° C. for 30 min before loading them onto the microplate reader. Thermal denaturation was monitored by following the increase in ANS fluorescence intensity due to protein unfolding λexc=395 and λern=500 nm; filters (Matulis D, et. Al., Biochemistry 2005, 44(13):5258-66). Fluorescence was registered in the 25-75° C. range, at a 1° C./min scan rate and allowing the system to equilibrate at each temperature for 1 min before fluorescence acquisition The experiments were real-time monitored using the software provided by the manufacturer. After smoothing and normalization of the experimental data, ligand induced stabilization was screened by estimation of the T0.5 as midpoint temperature of the transition defined as the temperature where half of the unfolded fluorescence signal (fu) is experimentally observed, using a home-built software written in C++ and the following expression (equation 1): […]
(§2) Additional thermal denaturation experiments were performed on a Cary Eclipse fluorescence spectrophotometer equipped with a temperature controlled Peltier multicell holder (Varian). Samples containing PAH (2 μM subunit) in 20 mM NaHepes, 200 mM NaCl, pH 7.0, 100 μM ANS, 2.5% DMSO and 0-100 μM ligands were incubated at room temperature for 30 min to allow equilibration prior to measurements. Thermal denaturation was monitored by following changes in ANS fluorescence emission (excitation at 395 and emission at 500 nm; slits 10 nm) at a 1 K/min in a 20-80° C. range. Each run contained 4 different samples, including a control in the absence of ligand. Data analysis was performed by fitting of the experimental fluorescence to equation 1.
(§3) Similar ligand-induced stabilization experiments were performed using i) a double truncated form of PAH equivalent to the catalytic domain (PAH103-428) lacking both the regulatory N-terminal domain and the tetramerization motif and existing as a functional dimmer and ii) the R68S-PAH mutant, associated to mild PKU and one of the few PKU mutants that display enough stability to be purified as a stable tetramer.

The target in another test is T2, wt-PAH (Homo sapiens, UniProt P00439).
T2 construct: made in house; host or cells: E. coli
T2 sequence (P00439 1-452): T1 sequence (P00439 1-452 R68S) with S68R
In words: ANS-monitored thermal unfolding of wt-PAH. The following applies: for ΔT0.5 PAHwt / T0.5 PAHwt (half denaturation temperature): 100 μM compound; for ΔT0.5 PAHwt: vs no ligand; for T0.5 PAHwt (half denaturation temperature): mean ± SD; for stabilizing effect on wt-PAH: 25 μM compound (FIG. 2). On the procedure: as §1, §2

Test [1] has as its target T3, PAH103-428 (catalytic domain) (Homo sapiens, UniProt P00439).
T3 construct: made in house; host or cells: E. coli
T3 sequence (P00439 103-428): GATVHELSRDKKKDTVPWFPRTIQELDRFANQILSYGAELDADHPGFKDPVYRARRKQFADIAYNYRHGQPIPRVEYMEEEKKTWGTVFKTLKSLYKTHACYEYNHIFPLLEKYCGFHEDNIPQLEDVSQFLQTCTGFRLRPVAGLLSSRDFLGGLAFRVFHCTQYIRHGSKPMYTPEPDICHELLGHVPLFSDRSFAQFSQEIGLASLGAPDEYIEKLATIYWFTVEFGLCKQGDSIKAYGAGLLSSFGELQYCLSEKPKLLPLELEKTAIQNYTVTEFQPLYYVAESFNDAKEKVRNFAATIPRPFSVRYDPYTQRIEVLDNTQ
In words: ANS-monitored thermal unfolding of PAH103-428. The following applies: for ΔT0.5 PAH103-428 / T0.5 PAH103-428: 100 μM compound; for ΔT0.5 PAH103-428: vs no ligand; for T0.5 PAH103-428: mean ± SD; for stabilization of PAH103-428: 100 μM ligand. On the procedure:
as §1, §2, §3

Positions count from the first letter of the chain named.

In the case of `Cc1onc(-c2ccccc2)c1-c1n[nH]c(N)c1C#N` [Compound 5, 5-amino-3-(5-methyl-3-phenyl-4-isoxazolyl)-1H-pyrazole-4-carbonitrile], on R68S-PAH, the “ΔT0.5 PAHR68S” value was found to be 1.1 °C and the “T0.5 PAHR68S” value was 50.0 ± 1.4 °C. Also, at wt-PAH, the “ΔT0.5 PAHwt” value was found to be 2.6 °C and the “T0.5 PAHwt (half denaturation temperature)” value was determined as 52.1 ± 0.9 °C. In test [1], the “ΔT0.5 PAH103-428” value turned out to be 4.3 °C and the “T0.5 PAH103-428” value stood at 49.2 ± 1.2 °C.
For `Cn1cnc([N+](=O)[O-])c1N1CCN(C(c2ccccc2)c2ccccc2)CC1` [Compound 6, 1-benzhydryl-4-(1-methyl-4-nitro-1H-imidazol-5-yl)piperazine], on R68S-PAH, the “ΔT0.5 PAHR68S” value was found to be 3.2 °C, the “T0.5 PAHR68S” value came to 52.1 ± 1.6 °C and the “stabilization of R68S-PAH” value is recorded as “significantly stabilized”. For the same molecule, on wt-PAH, the “ΔT0.5 PAHwt” value was found to be 2.7 °C and the “T0.5 PAHwt (half denaturation temperature)” value was 52.2 ± 1.3 °C. Moreover, in test [1], the “ΔT0.5 PAH103-428” value was 8.4 °C, the “T0.5 PAH103-428” value came to 53.3 ± 1.5 °C and the “stabilization of PAH103-428” value is recorded as “significantly stabilized”.
For the molecule `Nc1c(-c2ccc3ccccc3n2)c2ccc([N+](=O)[O-])cc2c(=O)n1Cc1ccccc1` [Compound 11, 3-amino-2-benzyl-7-nitro-4-(2-quinolyl)-1,2-dihydroisoquinolin-1-one], on R68S-PAH, the “ΔT0.5 PAHR68S” value came to 8.2 °C, the “T0.5 PAHR68S” value was 57.1 ± 0.3 °C and the “stabilization of R68S-PAH” value is on record as “significantly stabilized”. At wt-PAH, the “stabilizing effect on wt-PAH” value is “significant”, the “ΔT0.5 PAHwt” value amounted to 13.6 °C and the “T0.5 PAHwt (half denaturation temperature)” value turned out to be 63.1 ± 2.9 °C. For the same molecule, in test [1], the “ΔT0.5 PAH103-428” value is 10.1 °C, the “T0.5 PAH103-428” value was 55.0 ± 1.3 °C and the “stabilization of PAH103-428” value was “significantly stabilized”.
Take `Cc1ccnc(-n2c(=S)[nH]c3sc(C)c(C)c3c2=O)c1` [Compound 13, 5,6-dimethyl-3-(4-methyl-2-pyridinyl)-2-thioxo-2,3 dihydrothieno[2,3-d]pyrimidin-4(1H)-one]: on R68S-PAH, the “ΔT0.5 PAHR68S” value was found to be 1.6 °C, the “T0.5 PAHR68S” value was 50.5 ± 0.5 °C and the “stabilization of R68S-PAH” value was “only a slight stabilized”. On wt-PAH, the “stabilizing effect on wt-PAH” value is “significant”, the “ΔT0.5 PAHwt” value worked out at 7.2 °C and the “T0.5 PAHwt (half denaturation temperature)” value came out at 56.7 ± 1.5 °C. In addition, in test [1], the “ΔT0.5 PAH103-428” value worked out at 1.2 °C, the “T0.5 PAH103-428” value came out at 46.1 ± 0.7 °C and the “stabilization of PAH103-428” value was “only a slight stabilized”.
